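96-well plates; 48 h exposure; 5 concentrations. Endpoints by linear interpolation between flanking doses. Not reached: highest tested concentration assigned. At the GI50, growth is halved.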 Calls of active or inactive are those of the source. Rule as the data show it: active = GI50 up to about 1.1 µM and inactive = higher.
Columns and labels:
Assay in all cases: NCI-60 cell line screen, 48 h
CCRF-CEM = test system: CCRF-CEM
HL-60 = test system: HL-60
NCI-H460 = test system: NCI-H460
OVCAR-4 = test system: OVCAR-4
CAKI-1 = test system: CAKI-1
HCT-15 = test system: HCT-15
NCI-H23 = test system: NCI-H23
SF-295 = test system: SF-295
SNB-19 = test system: SNB-19
PC-3 = test system: PC-3
COLO 205 = test system: COLO 205
A549 = test system: A549
NCI/ADR-RES = test system: NCI/ADR-RES
SK-MEL-28 = test system: SK-MEL-28
UACC-257 = test system: UACC-257
BT-549 = test system: BT-549
RPMI-8226 = test system: RPMI-8226
SK-MEL-5 = test system: SK-MEL-5
HCC 2998 = test system: HCC 2998
Hs-578T = test system: Hs-578T

SMILES: CCCc1ccc(OCC(=O)N/N=C/c2c(-c3ccccc3)[nH]c3ccccc23)cc1
- GI50 (CCRF-CEM): 5.98 µM (inactive)
- GI50 (HL-60): 3.96 µM (inactive)
- GI50 (NCI-H460): 4 µM (inactive)
- GI50 (OVCAR-4): 8.32 µM (inactive)
- GI50 (CAKI-1): 21.1 µM (inactive)
- GI50 (HCT-15): 4.99 µM
- GI50 (NCI-H23): 13.6 µM (inactive)
- GI50 (SF-295): 8.69 µM (inactive)
- GI50 (SNB-19): 35.8 µM (inactive)
- GI50 (PC-3): 5.98 µM (inactive)
- GI50 (COLO 205): 3.43 µM (inactive)
- GI50 (A549): 8.17 µM (inactive)
- GI50 (NCI/ADR-RES): 6.81 µM (inactive)
- GI50 (SK-MEL-28): 20.1 µM (inactive)
- GI50 (UACC-257): 15.4 µM (inactive)
- GI50 (BT-549): 13.8 µM (inactive)
- GI50 (RPMI-8226): 5.48 µM (inactive)
- GI50 (SK-MEL-5): 8.43 µM (inactive)
- GI50 (HCC 2998): 4.04 µM (inactive)
- GI50 (Hs-578T): 28.4 µM (inactive)

SMILES: O=C(CN1C(=O)c2ccccc2C1=O)NC1(C(=O)O)CCCC1
- GI50 (CCRF-CEM): > 100 µM (inactive)
- GI50 (HL-60): > 100 µM (inactive)
- GI50 (OVCAR-4): > 100 µM (inactive)
- GI50 (CAKI-1): > 100 µM (inactive)
- GI50 (HCT-15): > 100 µM
- GI50 (NCI-H23): > 100 µM (inactive)
- GI50 (SF-295): > 100 µM (inactive)
- GI50 (SNB-19): > 100 µM (inactive)
- GI50 (PC-3): > 100 µM (inactive)
- GI50 (COLO 205): > 100 µM (inactive)
- GI50 (A549): > 100 µM (inactive)
- GI50 (NCI/ADR-RES): > 100 µM (inactive)
- GI50 (SK-MEL-28): > 100 µM (inactive)
- GI50 (UACC-257): > 100 µM (inactive)
- GI50 (BT-549): > 100 µM (inactive)
- GI50 (RPMI-8226): > 100 µM (inactive)
- GI50 (SK-MEL-5): > 100 µM (inactive)
- GI50 (HCC 2998): > 100 µM (inactive)
- GI50 (Hs-578T): > 100 µM (inactive)

SMILES: NCCNC(=S)S
- GI50 (CCRF-CEM): 22.4 µM (inactive)
- GI50 (HL-60): 44.7 µM (inactive)
- GI50 (OVCAR-4): > 100 µM (inactive)
- GI50 (CAKI-1): > 100 µM (inactive)
- GI50 (HCT-15): 58.2 µM
- GI50 (NCI-H23): > 100 µM (inactive)
- GI50 (SF-295): > 100 µM (inactive)
- GI50 (SNB-19): > 100 µM (inactive)
- GI50 (PC-3): > 100 µM (inactive)
- GI50 (COLO 205): > 100 µM (inactive)
- GI50 (A549): > 100 µM (inactive)
- GI50 (NCI/ADR-RES): > 100 µM (inactive)
- GI50 (SK-MEL-28): > 100 µM (inactive)
- GI50 (UACC-257): > 100 µM (inactive)
- GI50 (BT-549): > 100 µM (inactive)
- GI50 (RPMI-8226): 24.9 µM (inactive)
- GI50 (SK-MEL-5): > 100 µM (inactive)
- GI50 (HCC 2998): > 100 µM (inactive)
- GI50 (Hs-578T): 7.31 µM (inactive)

SMILES: O=C(NNC(=S)Nc1ccc(Cl)cc1)C12CC3CC(CC(C3)C1)C2
- GI50 (CCRF-CEM): 1.29 µM (inactive)
- GI50 (HL-60): 1.68 µM (inactive)
- GI50 (NCI-H460): 2.97 µM (inactive)
- GI50 (OVCAR-4): 4.92 µM (inactive)
- GI50 (CAKI-1): 7.19 µM (inactive)
- GI50 (HCT-15): 3.18 µM
- GI50 (NCI-H23): 7.5 µM (inactive)
- GI50 (SF-295): 5.87 µM (inactive)
- GI50 (SNB-19): 5.15 µM (inactive)
- GI50 (PC-3): 3.19 µM (inactive)
- GI50 (COLO 205): 3.32 µM (inactive)
- GI50 (A549): 3.84 µM (inactive)
- GI50 (NCI/ADR-RES): 3.56 µM (inactive)
- GI50 (SK-MEL-28): 14.8 µM (inactive)
- GI50 (UACC-257): 6.15 µM (inactive)
- GI50 (BT-549): 11.6 µM (inactive)
- GI50 (SK-MEL-5): 3.85 µM (inactive)
- GI50 (HCC 2998): 7.1 µM (inactive)
- GI50 (Hs-578T): 17.1 µM (inactive)

SMILES: O=C(CCc1ccc(O)c(O)c1)NCCc1cc(O)c(O)c(O)c1
- GI50 (CCRF-CEM): 44.5 µM (inactive)
- GI50 (HL-60): 49.5 µM (inactive)
- GI50 (NCI-H460): 20.6 µM (inactive)
- GI50 (OVCAR-4): 20.2 µM (inactive)
- GI50 (HCT-15): 16.4 µM
- GI50 (NCI-H23): 15.8 µM (inactive)
- GI50 (SF-295): 19 µM (inactive)
- GI50 (SNB-19): > 100 µM (inactive)
- GI50 (PC-3): > 100 µM (inactive)
- GI50 (COLO 205): 37.8 µM (inactive)
- GI50 (A549): 22.5 µM (inactive)
- GI50 (NCI/ADR-RES): 18.1 µM (inactive)
- GI50 (SK-MEL-28): > 100 µM (inactive)
- GI50 (UACC-257): 50.1 µM (inactive)
- GI50 (BT-549): 17 µM (inactive)
- GI50 (RPMI-8226): 36.7 µM (inactive)
- GI50 (SK-MEL-5): 23.3 µM (inactive)
- GI50 (HCC 2998): > 100 µM (inactive)
- GI50 (Hs-578T): 78.3 µM (inactive)

SMILES: O=C(CSCC(=O)N/N=C/c1ccc2c(c1)OCO2)N/N=C/c1ccc2c(c1)OCO2
- GI50 (CCRF-CEM): 82.2 µM (inactive)
- GI50 (HL-60): 58.9 µM (inactive)
- GI50 (NCI-H460): > 100 µM (inactive)
- GI50 (OVCAR-4): > 100 µM (inactive)
- GI50 (CAKI-1): > 100 µM (inactive)
- GI50 (HCT-15): > 100 µM
- GI50 (NCI-H23): 27 µM (inactive)
- GI50 (SF-295): 44.6 µM (inactive)
- GI50 (SNB-19): > 100 µM (inactive)
- GI50 (PC-3): 40.6 µM (inactive)
- GI50 (A549): 91.4 µM (inactive)
- GI50 (NCI/ADR-RES): > 100 µM (inactive)
- GI50 (SK-MEL-28): > 100 µM (inactive)
- GI50 (UACC-257): 30.3 µM (inactive)
- GI50 (BT-549): > 100 µM (inactive)
- GI50 (RPMI-8226): 49.3 µM (inactive)
- GI50 (SK-MEL-5): 24.2 µM (inactive)
- GI50 (HCC 2998): > 100 µM (inactive)
- GI50 (Hs-578T): > 100 µM (inactive)

SMILES: CC(=O)N1CCn2c1nc1cc(Cl)ccc12
- GI50 (CCRF-CEM): > 100 µM (inactive)
- GI50 (HL-60): > 100 µM (inactive)
- GI50 (NCI-H460): 77.6 µM (inactive)
- GI50 (OVCAR-4): > 100 µM (inactive)
- GI50 (CAKI-1): > 100 µM (inactive)
- GI50 (HCT-15): 35.2 µM
- GI50 (SF-295): 47.8 µM (inactive)
- GI50 (SNB-19): 69 µM (inactive)
- GI50 (PC-3): 47.5 µM (inactive)
- GI50 (COLO 205): > 100 µM (inactive)
- GI50 (A549): > 100 µM (inactive)
- GI50 (NCI/ADR-RES): > 100 µM (inactive)
- GI50 (SK-MEL-28): > 100 µM (inactive)
- GI50 (UACC-257): > 100 µM (inactive)
- GI50 (BT-549): > 100 µM (inactive)
- GI50 (SK-MEL-5): > 100 µM (inactive)
- GI50 (HCC 2998): > 100 µM (inactive)
- GI50 (Hs-578T): 31.4 µM (inactive)

Source: ChEMBL document CHEMBL1201862, “PubChem BioAssay data set” (2004)
